Columns and labels:
MCF7 = assay type: cell-based; details: one dose 10^-5 M, 48 h
SF-295 = assay type: cell-based; details: one dose 10^-5 M, 48 h
HOP-92 = assay type: cell-based; details: one dose 10^-5 M, 48 h
HCT-116 = assay type: cell-based; details: one dose 10^-5 M, 48 h
NCI-H226 = assay type: cell-based; details: one dose 10^-5 M, 48 h
NCI-H460 = assay type: cell-based; details: one dose 10^-5 M, 48 h
OVCAR-4 = assay type: cell-based; details: one dose 10^-5 M, 48 h
OVCAR-3 = assay type: cell-based; details: one dose 10^-5 M, 48 h
SK-MEL-2 = assay type: cell-based; details: one dose 10^-5 M, 48 h
K-562 = assay type: cell-based; details: one dose 10^-5 M, 48 h
NCI-H23 = assay type: cell-based; details: one dose 10^-5 M, 48 h
ACHN = assay type: cell-based; details: one dose 10^-5 M, 48 h
HCC-2998 = assay type: cell-based; details: one dose 10^-5 M, 48 h
OVCAR-8 = assay type: cell-based; details: one dose 10^-5 M, 48 h
HS 578T = assay type: cell-based; details: one dose 10^-5 M, 48 h; HS 578T
SR = assay type: cell-based; details: one dose 10^-5 M, 48 h
UACC-62 = assay type: cell-based; details: one dose 10^-5 M, 48 h
SN12C = assay type: cell-based, human; details: one dose 10^-5 M, 48 h
CAKI-1 = assay type: cell-based; details: one dose 10^-5 M, 48 h
SK-MEL-28 = assay type: cell-based; details: one dose 10^-5 M, 48 h
EKVX = assay type: cell-based; details: one dose 10^-5 M, 48 h
MDA-MB-468 = assay type: cell-based; details: one dose 10^-5 M, 48 h
TK-10 = assay type: cell-based; details: one dose 10^-5 M, 48 h
HOP-62 = assay type: cell-based; details: one dose 10^-5 M, 48 h
MDA-MB-435 = assay type: cell-based; details: one dose 10^-5 M, 48 h
UACC-257 = assay type: cell-based; details: one dose 10^-5 M, 48 h
MDA-MB-231/ATCC = assay type: cell-based; details: one dose 10^-5 M, 48 h
HL-60(TB) = assay type: cell-based; details: one dose 10^-5 M, 48 h
A498 = assay type: cell-based; details: one dose 10^-5 M, 48 h
RPMI-8226 = assay type: cell-based; details: one dose 10^-5 M, 48 h
SF-268 = assay type: cell-based; details: one dose 10^-5 M, 48 h
OVCAR-5 = assay type: cell-based; details: one dose 10^-5 M, 48 h
T-47D = assay type: cell-based; details: one dose 10^-5 M, 48 h
A549/ATCC = assay type: cell-based; details: one dose 10^-5 M, 48 h
CCRF-CEM = assay type: cell-based; details: one dose 10^-5 M, 48 h
UO-31 = assay type: cell-based; details: one dose 10^-5 M, 48 h
SK-OV-3 = assay type: cell-based; details: one dose 10^-5 M, 48 h
SNB-19 = assay type: cell-based; details: one dose 10^-5 M, 48 h
[1] = test system: full NCI 60 cell lines panel
HT29 = assay type: cell-based; details: one dose 10^-5 M, 48 h
SF-539 = assay type: cell-based; details: one dose 10^-5 M, 48 h
RXF 393 = assay type: cell-based; details: one dose 10^-5 M, 48 h
HCT-15 = assay type: cell-based; details: one dose 10^-5 M, 48 h
PC-3 = assay type: cell-based; details: one dose 10^-5 M, 48 h
MALME-3M = assay type: cell-based; details: one dose 10^-5 M, 48 h
IGROV1 = assay type: cell-based; details: one dose 10^-5 M, 48 h
LOX IMVI = assay type: cell-based; details: one dose 10^-5 M, 48 h
M14 = assay type: cell-based; details: one dose 10^-5 M, 48 h
SNB-75 = assay type: cell-based; details: one dose 10^-5 M, 48 h
NCI-H522 = assay type: cell-based; details: one dose 10^-5 M, 48 h
U251 = assay type: cell-based; details: one dose 10^-5 M, 48 h
MOLT-4 = assay type: cell-based; details: one dose 10^-5 M, 48 h
KM12 = assay type: cell-based; details: one dose 10^-5 M, 48 h
786-0 = assay type: cell-based; details: one dose 10^-5 M, 48 h
SK-MEL-5 = assay type: cell-based; details: one dose 10^-5 M, 48 h
SW-620 = assay type: cell-based; details: one dose 10^-5 M, 48 h
DU-145 = assay type: cell-based; details: one dose 10^-5 M, 48 h

## 3-Amino-4–(4-chlorophenyl)-1H-pyrazolo[3,4-d] pyrimidine-6-thiol [Compound 3b]
MCF7
  % growth: 94.30%
SF-295
  % growth: 89.90%
HOP-92
  % growth: 100.46%
HCT-116
  % growth: 102.04%
NCI-H226
  % growth: 107.48%
NCI-H460
  % growth: 107.05%
OVCAR-4
  % growth: 98.54%
OVCAR-3
  % growth: 113.31%
SK-MEL-2
  % growth: 108.20%
K-562
  % growth: 94.65%
NCI-H23
  % growth: 103.30%
ACHN
  % growth: 102.63%
HCC-2998
  % growth: 100.20%
OVCAR-8
  % growth: 104.96%
HS 578T
  % growth: 111.10%
SR
  % growth: 91.21%
UACC-62
  % growth: 100.93%
SN12C
  % growth: 97.55%
CAKI-1
  % growth: 93.47%
SK-MEL-28
  % growth: 107.34%
EKVX
  % growth: 96.85%
MDA-MB-468
  % growth: 106.46%
TK-10
  % growth: 114.88%
HOP-62
  % growth: 106.23%
MDA-MB-435
  % growth: 98.24%
UACC-257
  % growth: 106.44%
MDA-MB-231/ATCC
  % growth: 98.65%
HL-60(TB)
  % growth: 82.04%
A498
  % growth: 109.21%
RPMI-8226
  % growth: 90.84%
SF-268
  % growth: 103.53%
OVCAR-5
  % growth: 108.35%
T-47D
  % growth: 86.49%
A549/ATCC
  % growth: 100.87%
CCRF-CEM
  % growth: 92.49%
UO-31
  % growth: 92.69%
SK-OV-3
  % growth: 106.45%
SNB-19
  % growth: 92.80%
[1]; one dose
  activity on all 60 cancer cell lines tested (in words): weak activity
[1]; one dose 10^-5 M, 48 h, mean over all cell lines
  Mean % growth: 100.23%
HT29
  % growth: 95.28%
SF-539
  % growth: 98.83%
RXF 393
  % growth: 103.75%
HCT-15
  % growth: 103.06%
PC-3
  % growth: 101.93%
MALME-3M
  % growth: 100.39%
IGROV1
  % growth: 96.70%
LOX IMVI
  % growth: 103.05%
M14
  % growth: 107.99%
SNB-75
  % growth: 94.54%
NCI-H522
  % growth: 84.30%
U251
  % growth: 101.98%
MOLT-4
  % growth: 92.74%
KM12
  % growth: 100.80%
786-0
  % growth: 99.34%
SK-MEL-5
  % growth: 95.82%
SW-620
  % growth: 102.78%
DU-145
  % growth: 101.49%
